This is an account of results in patent US20230293535A1, “ERBB/BTK INHIBITORS” (Dizal (Jiangsu) Pharmaceutical Co., Ltd., priority 2018, published 2023).

What all share (assay type): cell-based
Assay [1] concerns the target T1, human EGFR exon 20 H773_V774insNPH (Homo sapiens, UniProt P00533, INS773NPH).
T1 construct: host or cells: Ba/F3
Put plainly: EGFR Exon20 NPH insertion cellular phosphorylation inhibition (MSD pEGFR Y1068/total EGFR).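 Further: IL3-independent Ba/F3 cells with constitutively phosphorylated EGFR, compound exposure at 37 °C under 5% CO2, electrochemiluminescent MSD measurement of the p-EGFR to total EGFR ratio.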 As to conditions: Ba/F3 EGFR NPH ins cells, 4 h compound, p-EGFR(Y1068)/total EGFR.

Assay [2] has as its target T2, human EGFR exon 20 V769_D770insASV (Homo sapiens, UniProt P00533, INS769ASV).
T2 construct: expressed in transfected cells; host or cells: Ba/F3 (DSMZ ACC-300), lentiviral transduction, puromycin selection, IL3 depletion
Put plainly: EGFR Exon20 ASV insertion cellular phosphorylation inhibition (MSD pEGFR Y1068/total EGFR).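 Further: electrochemiluminescent readout on an MSD SECTOR Imager, IL3-independent transduced cells in medium with 1% FBS, compound concentration series at 37 °C and 5% CO2.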 As to conditions: Ba/F3 EGFR ASV ins cells, 4 h compound, p-EGFR(Y1068)/total EGFR.
Method: To generate the EGFR exon 20 V769_D770insASV transduced Ba/F3 cell line, the parental Ba/F3 cells were infected with the recombinant EGFR V769_D770insASV lentivirus and then followed by 1 µg/ml of puromycin selection and IL3 depletion. The resulting cell line expresses constitutively phosphorylated EGFR protein and proliferates in the absence of IL3, which could be used for in vitro PD and anti-proliferation assays.
One day before the test, WT or mutant cells were seeded in 96 well plates at appropriate concentrations with corresponding growth media supplemented with 1% FBS, and incubated overnight. The next day, tested compounds at a series of concentrations were added into each individual well of the plates, and the plates were incubated for 4 h at 37° C. with 5% CO2.
The EGFR (Y1068) phosphorylation level (activity) of cells in each well were then measured with MSD kit named “MULTI-SPOT®96 4-Spot HB Prototype EGFR Triplex [sequence]: pEGFR(Tyr1068),pEGFR(Tyr1173), Total EGFR” according to the manufacturer’s instruction (MESO SCALE DISCOVERY, Cat# N45ZB-1). The assay is an electrochemiluminescent method for determining both phosphorylated and total EGFR of cells with an MSD SECTOR® Imager and the ratio of p-EGFR/total EGFR can be generated by the machine. The Her2 (Y1248) phosphorylation level (activity) of cells in each well were measured with MSD Kit named “Phospho-ErbB2 (Tyr1248) Assay Whole Cell Lysate Kit” according to the manufacturer’s instruction (MESO SCALE DISCOVERY, Cat# K151CLD-3). The assay is an electrochemiluminescent method (MESO SCALE DISCOVERY) for determining both phosphorylated and total Her2 of cells with an MSD SECTOR® Imager and then the ratio of p-Her2/total Her2 can be generated by the machine.

The target of assay [3] is T3, EGFR L858R&T790M (Homo sapiens, UniProt P00533, L858R/T790M).
T3 construct: host or cells: NCI-H1975
The assay can be described thus: EGFR L858R and T790M cellular phosphorylation inhibition in NCI-H1975 (MSD).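 Further: phosphorylated and total EGFR detected by electrochemiluminescence, cells exposed to compound in medium containing 1% FBS at 37 °C.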 Conditions: NCI-H1975 cells, 4 h compound, p-EGFR(Y1068)/total EGFR; read-out: EGFR L858R and T790M mutation IC50.

Assay [4] has as its target T4, human Her2 exon 20 insertion mutation YVMA (Homo sapiens, UniProt P04626, INS775YVMA).
T4 construct: expressed in transfected cells; host or cells: NIH-3T3, lentiviral transduction, puromycin selection
Put plainly: Her2 Exon 20 YVMA insertion cellular phosphorylation inhibition (MSD p-Her2 Y1248/total Her2).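 Further: lentivirally transduced NIH-3T3 cells in 1% FBS medium, electrochemiluminescent MSD read-out, graded compound concentrations at 37 °C.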 As to conditions: Her2 YVMAins cells, 4 h compound.

Assay [5] addresses T5, WT EGFR (Homo sapiens, UniProt P00533).
T5 construct: host or cells: A-431
Put plainly: WT EGFR cellular phosphorylation inhibition in A-431 (hEGF stimulated, MSD).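 Further: electrochemiluminescence read-out of EGFR Tyr1068 phosphorylation expressed as ratio to total EGFR, cells kept in medium with 1% FBS, compounds tested as a concentration series.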 Conditions: A431 cells, 4 h compound, then 100 ng/ml hEGF 10 min.

The subject of assay [6] is Ba/F3 EGFR NPH ins cells. Put plainly: Cell proliferation, Ba/F3 EGFR NPH ins (CellTiter-Glo, 72 h).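 Further: IL3-independent cells carrying constitutively phosphorylated EGFR, compound dilution series, viable cells quantified by ATP luminescence, growth relative to DMSO wells after subtracting pre-dosing (day 0) baseline.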 Conditions: Ba/F3 EGFR, 72 h. On the technique in general: Cellular ATP, detected with luciferase, serves as a proxy for viable cell number.
Method: Similar to recombinant human EGFR exon 20 H769_V770insASV Ba/F3 cell line, the recombinant human EGFR exon 20 H773_V774insNPH Ba/F3 cell line also expresses constitutively phosphorylated EGFR protein and proliferates in the absence of IL3, which could be used for in vitro PD and anti-proliferation assays.
(§1) WT or mutant cells were seeded in 384 well plates at appropriate concentrations with corresponding growth media supplemented with 10% FBS, for each experiment, identical plates were prepared in duplicates, and the plates were incubated overnight. On the next day, one of each duplicated plates was dosed with tested compounds at a series of concentrations, and another one of the duplicated plate was analysied for G0 value. The dosed plates were incubate for another 72 h at 37° C. with 5% CO2 and the number of viable cells in each well of the G0 plates or the dosed plates were measured by CellTiter-Glo® Luminescent Cell Viability Assay (Promega). This assay is a luminescent method for determining the number viable cells through measurement of cellular ATP concentration by detection of luciferase activity. Detection reagents (15 µl) was dispensed into per well, and the plates were incubate for 30 min at room temperature. Then, the luminescence in each well was measured using the Envision plate reader (PerkinElmer). The percentage of proliferation was calculated based on the formula: %Proliferation= 100 × (G3 value of sample well-Go value)/(G3 value of DMSO control-Go value).
Assay [7] concerns Ba/F3 EGFR ASV ins cells. The assay can be described thus: Cell proliferation, Ba/F3 EGFR ASV ins (CellTiter-Glo, 72 h).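 Further: IL3-independent Ba/F3 cells transduced with EGFR V769_D770insASV, cellular ATP luminescence after compound exposure, growth relative to DMSO control with the day-0 baseline reading subtracted.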 Conditions: Ba/F3 EGFR, 72 h.
Assay [8] concerns NCI-H1975 EGFR L858R/T790M cells. Put plainly: Cell proliferation, NCI-H1975 EGFR L858R/T790M (CellTiter-Glo, 72 h).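 Further: viable cells quantified by luciferase-based ATP luminescence, proliferation expressed relative to DMSO-treated wells (100%) after subtracting a parallel plate read at the time of dosing.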 Conditions: Homo sapiens, NCI-H1975, 72 h.
Assay [9] deals with Her2 exon 20 insertion YVMA transduced NIH-3T3 cell line. The assay can be described thus: Cell proliferation, Her2 YVMAins NIH-3T3 (CellTiter-Glo, 72 h).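 Further: viable cells quantified by ATP luminescence, growth over a day-zero baseline plate expressed as percent of DMSO control growth, compound dilution series in 10% FBS medium.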 Conditions: Mus musculus, NIH3T3, 72 h, Her2 YVMAins cells, 72 h proliferation; read-out: Her2 Exon 20 YVMA insertion GI50.
Method: as §1
The test system of assay [10] is WT EGFR cell line A-431. Put plainly: Cell proliferation, WT EGFR A431 (CellTiter-Glo, 72 h).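 Further: proliferation from a luminescent ATP viability signal, expressed as 100 × (treated minus time-zero plate) over (DMSO control minus time-zero plate), cells grown with 10% FBS.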 As to conditions: Homo sapiens, A-431, 72 h.
The subject of assay [11] is OCI-LY-10 cells. The assay can be described thus: BTK (wt) cell proliferation, OCI-LY-10 (CellTiter-Glo, 72 h).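 Further: viable cells quantified via cellular ATP luminescence, proliferation given as percent of DMSO control after subtracting a duplicate plate read at time of dosing.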 As to conditions: Homo sapiens, OCI-Ly10, 72 h, OCI-LY-10 cells, 72 h, CellTiter-Glo; read-out: BTK WT OCI-LY-10 GI50.
Method: (§2) OCI-LY-10 at 3,750 cells/well, TMD-8 and Ri-1 at 2,000 cells/well, and DB at 1,250 cells/well, respectively, were sorted into 384-well plates in RPMI1640 medium with 10% FBS. After overnight incubation, all cells were incubated with compound at a series of concentrations. Meanwhile, a duplicated plate of each cell line was prepared for measuring G0 value. The dosed plates were further incubated for 72 hours and the number of viable cells was measured by CellTiter-Glo® Luminescent Cell Viability Assay (Promega), a luminescent method for determining the number of viable cells through measurement of cellular ATP concentration using Envision plate reader (PerkinElmer). The percentage of proliferation was calculated as: % Proliferation = 100 × (G3 value of sample well - G0 value)/(G3 value of DMSO control - G0 value).
Assay [12] deals with TMD-8 cells. The assay can be described thus: BTK (wt) cell proliferation, TMD-8 (CellTiter-Glo, 72 h).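 Further: viable cells quantified by ATP-based luminescence, proliferation expressed as percent of DMSO control after subtracting a time-zero baseline plate read at dosing.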 Conditions: Homo sapiens, TMD8, 72 h, TMD-8 cells, 72 h, CellTiter-Glo; read-out: BTK WT TMD-8 GI50.
Method: as §2
Assay [13] deals with Ri-1 cells. Put plainly: BTK (wt) cell proliferation, Ri-1 (CellTiter-Glo, 72 h).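 Further: viable cells quantified as cellular ATP luminescence, proliferation normalized to a time-zero plate and the DMSO control, compounds tested across a dilution series.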 As to conditions: Ri-1, 72 h, Ri-1 cells, 72 h, CellTiter-Glo; read-out: BTK WT Ri-1 GI50.
Method: as §2
In assay [14] the test system is DB cells. Put plainly: BTK (wt) cell proliferation, DB (CellTiter-Glo, 72 h).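 Further: DB cells in 384-well plates given a dilution series of compound, viable cells read by ATP luminescence, growth expressed versus DMSO control after subtracting a time-zero plate reading.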 Conditions: Homo sapiens, DB, DB cells, CellTiter-Glo, read-out: Non-BCR activated DB GI50.
The mark [15] stands for this setting: Ba/F3 EGFR NPH ins, 72 h proliferation, read-out: EGFR Exon20 NPH insertion GI50.
The mark [16] stands for this setting: Ba/F3 EGFR ASV ins, 72 h proliferation, read-out: EGFR Exon20 ASV insertion GI50.
Where [17] appears, read: NCI-H1975, 72 h proliferation, read-out: EGFR L858R and T790M mutation GI50.
Setting [18] is: A431, 72 h proliferation, read-out: EGFR WT A431 GI50.

SMILES strings stand for the structures. Structures can show the parent of a compound that is named as a salt. Where two headings read alike, the source gives them in different places.

What is called IC50 is the point on the concentration scale where inhibition reaches its midpoint. Usually GI50 stands for the concentration that inhibits growth by half.

T5 sequence (P00533 25-1210): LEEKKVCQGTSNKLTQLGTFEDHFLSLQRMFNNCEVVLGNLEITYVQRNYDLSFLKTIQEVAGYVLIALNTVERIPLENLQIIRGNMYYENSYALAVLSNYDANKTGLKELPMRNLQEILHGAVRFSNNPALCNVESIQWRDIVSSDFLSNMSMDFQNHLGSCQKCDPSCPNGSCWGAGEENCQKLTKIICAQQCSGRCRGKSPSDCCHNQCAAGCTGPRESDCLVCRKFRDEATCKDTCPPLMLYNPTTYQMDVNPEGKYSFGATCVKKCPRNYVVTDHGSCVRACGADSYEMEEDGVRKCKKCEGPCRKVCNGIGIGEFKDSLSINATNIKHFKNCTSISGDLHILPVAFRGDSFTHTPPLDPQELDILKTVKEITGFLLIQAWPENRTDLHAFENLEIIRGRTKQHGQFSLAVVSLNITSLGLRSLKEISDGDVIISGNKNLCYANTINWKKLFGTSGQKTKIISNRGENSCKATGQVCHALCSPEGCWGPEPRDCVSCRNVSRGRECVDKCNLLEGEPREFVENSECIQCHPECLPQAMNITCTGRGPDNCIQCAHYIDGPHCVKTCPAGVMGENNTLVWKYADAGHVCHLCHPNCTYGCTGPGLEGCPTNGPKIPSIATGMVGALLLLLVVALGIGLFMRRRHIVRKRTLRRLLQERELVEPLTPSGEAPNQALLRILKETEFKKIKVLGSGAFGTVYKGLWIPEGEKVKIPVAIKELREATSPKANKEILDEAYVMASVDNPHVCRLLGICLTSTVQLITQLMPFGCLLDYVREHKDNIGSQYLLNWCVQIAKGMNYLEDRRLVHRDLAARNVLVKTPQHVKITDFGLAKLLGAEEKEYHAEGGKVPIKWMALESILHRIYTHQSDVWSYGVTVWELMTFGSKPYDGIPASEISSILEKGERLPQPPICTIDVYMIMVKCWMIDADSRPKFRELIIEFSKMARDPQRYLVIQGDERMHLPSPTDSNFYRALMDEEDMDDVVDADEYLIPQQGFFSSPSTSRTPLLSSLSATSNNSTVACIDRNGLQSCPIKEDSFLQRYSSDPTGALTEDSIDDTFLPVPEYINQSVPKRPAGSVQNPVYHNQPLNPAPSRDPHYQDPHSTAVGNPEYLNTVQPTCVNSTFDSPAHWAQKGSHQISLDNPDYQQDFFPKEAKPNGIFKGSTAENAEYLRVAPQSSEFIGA
T2 sequence (P00533 with tags, fused parts or gaps INS769ASV): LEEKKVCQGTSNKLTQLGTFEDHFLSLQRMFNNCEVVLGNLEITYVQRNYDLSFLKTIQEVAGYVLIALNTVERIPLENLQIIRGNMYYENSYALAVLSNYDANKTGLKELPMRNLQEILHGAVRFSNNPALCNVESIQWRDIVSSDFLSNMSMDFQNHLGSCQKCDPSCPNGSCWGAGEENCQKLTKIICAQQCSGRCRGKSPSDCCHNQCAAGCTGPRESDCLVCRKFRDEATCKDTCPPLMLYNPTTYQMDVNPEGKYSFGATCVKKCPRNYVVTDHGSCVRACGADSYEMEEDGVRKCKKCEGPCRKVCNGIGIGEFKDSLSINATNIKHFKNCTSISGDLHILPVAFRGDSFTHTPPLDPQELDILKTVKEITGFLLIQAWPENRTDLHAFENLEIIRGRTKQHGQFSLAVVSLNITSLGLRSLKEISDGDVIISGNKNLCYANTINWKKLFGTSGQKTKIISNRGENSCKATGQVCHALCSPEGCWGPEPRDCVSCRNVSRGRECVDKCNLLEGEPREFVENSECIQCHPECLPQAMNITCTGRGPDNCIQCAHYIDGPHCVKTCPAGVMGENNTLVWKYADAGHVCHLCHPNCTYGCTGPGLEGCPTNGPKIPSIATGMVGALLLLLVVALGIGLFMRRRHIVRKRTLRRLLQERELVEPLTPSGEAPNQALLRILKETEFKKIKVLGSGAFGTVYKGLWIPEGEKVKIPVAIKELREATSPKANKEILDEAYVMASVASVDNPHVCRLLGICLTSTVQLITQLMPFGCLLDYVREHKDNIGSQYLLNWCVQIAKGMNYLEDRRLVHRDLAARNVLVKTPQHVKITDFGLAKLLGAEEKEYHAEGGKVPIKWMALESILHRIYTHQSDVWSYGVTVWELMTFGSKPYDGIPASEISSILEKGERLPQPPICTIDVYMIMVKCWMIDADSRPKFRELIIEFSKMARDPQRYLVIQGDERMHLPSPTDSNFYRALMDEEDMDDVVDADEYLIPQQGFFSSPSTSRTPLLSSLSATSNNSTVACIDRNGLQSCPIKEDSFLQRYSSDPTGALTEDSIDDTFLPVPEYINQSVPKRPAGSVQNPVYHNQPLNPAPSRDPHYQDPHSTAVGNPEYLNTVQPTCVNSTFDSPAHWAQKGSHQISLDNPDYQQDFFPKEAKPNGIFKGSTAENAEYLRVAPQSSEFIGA
T3 sequence (P00533 25-1210 T790M/L858R): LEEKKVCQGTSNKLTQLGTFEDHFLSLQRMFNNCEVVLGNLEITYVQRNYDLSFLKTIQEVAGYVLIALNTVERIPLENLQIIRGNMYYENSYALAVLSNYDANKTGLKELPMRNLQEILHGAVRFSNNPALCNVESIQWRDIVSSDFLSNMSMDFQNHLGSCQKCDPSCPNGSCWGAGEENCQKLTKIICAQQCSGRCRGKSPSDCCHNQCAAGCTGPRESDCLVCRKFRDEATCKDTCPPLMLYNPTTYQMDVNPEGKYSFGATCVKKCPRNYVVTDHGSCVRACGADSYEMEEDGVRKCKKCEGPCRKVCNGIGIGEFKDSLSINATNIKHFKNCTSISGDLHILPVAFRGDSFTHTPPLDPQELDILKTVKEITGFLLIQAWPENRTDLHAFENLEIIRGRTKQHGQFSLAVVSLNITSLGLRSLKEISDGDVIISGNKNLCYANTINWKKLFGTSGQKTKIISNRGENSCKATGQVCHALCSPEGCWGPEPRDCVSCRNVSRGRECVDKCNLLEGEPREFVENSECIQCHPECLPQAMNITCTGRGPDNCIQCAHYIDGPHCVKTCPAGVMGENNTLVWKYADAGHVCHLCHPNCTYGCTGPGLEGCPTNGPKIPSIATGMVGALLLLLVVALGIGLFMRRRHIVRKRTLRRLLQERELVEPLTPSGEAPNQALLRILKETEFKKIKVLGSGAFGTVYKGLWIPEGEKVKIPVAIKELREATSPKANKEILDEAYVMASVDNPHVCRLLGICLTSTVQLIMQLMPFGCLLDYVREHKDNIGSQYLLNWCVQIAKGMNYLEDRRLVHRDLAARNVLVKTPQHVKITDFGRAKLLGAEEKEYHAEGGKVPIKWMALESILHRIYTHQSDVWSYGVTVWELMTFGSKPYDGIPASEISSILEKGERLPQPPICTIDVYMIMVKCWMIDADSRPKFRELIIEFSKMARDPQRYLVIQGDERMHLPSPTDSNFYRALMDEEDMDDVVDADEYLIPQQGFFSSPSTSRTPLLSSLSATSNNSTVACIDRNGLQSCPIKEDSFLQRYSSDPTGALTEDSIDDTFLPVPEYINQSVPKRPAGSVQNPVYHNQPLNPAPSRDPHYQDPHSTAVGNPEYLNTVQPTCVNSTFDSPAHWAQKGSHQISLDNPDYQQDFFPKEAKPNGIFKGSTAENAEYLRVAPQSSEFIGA
T1 sequence (P00533 with tags, fused parts or gaps INS773NPH): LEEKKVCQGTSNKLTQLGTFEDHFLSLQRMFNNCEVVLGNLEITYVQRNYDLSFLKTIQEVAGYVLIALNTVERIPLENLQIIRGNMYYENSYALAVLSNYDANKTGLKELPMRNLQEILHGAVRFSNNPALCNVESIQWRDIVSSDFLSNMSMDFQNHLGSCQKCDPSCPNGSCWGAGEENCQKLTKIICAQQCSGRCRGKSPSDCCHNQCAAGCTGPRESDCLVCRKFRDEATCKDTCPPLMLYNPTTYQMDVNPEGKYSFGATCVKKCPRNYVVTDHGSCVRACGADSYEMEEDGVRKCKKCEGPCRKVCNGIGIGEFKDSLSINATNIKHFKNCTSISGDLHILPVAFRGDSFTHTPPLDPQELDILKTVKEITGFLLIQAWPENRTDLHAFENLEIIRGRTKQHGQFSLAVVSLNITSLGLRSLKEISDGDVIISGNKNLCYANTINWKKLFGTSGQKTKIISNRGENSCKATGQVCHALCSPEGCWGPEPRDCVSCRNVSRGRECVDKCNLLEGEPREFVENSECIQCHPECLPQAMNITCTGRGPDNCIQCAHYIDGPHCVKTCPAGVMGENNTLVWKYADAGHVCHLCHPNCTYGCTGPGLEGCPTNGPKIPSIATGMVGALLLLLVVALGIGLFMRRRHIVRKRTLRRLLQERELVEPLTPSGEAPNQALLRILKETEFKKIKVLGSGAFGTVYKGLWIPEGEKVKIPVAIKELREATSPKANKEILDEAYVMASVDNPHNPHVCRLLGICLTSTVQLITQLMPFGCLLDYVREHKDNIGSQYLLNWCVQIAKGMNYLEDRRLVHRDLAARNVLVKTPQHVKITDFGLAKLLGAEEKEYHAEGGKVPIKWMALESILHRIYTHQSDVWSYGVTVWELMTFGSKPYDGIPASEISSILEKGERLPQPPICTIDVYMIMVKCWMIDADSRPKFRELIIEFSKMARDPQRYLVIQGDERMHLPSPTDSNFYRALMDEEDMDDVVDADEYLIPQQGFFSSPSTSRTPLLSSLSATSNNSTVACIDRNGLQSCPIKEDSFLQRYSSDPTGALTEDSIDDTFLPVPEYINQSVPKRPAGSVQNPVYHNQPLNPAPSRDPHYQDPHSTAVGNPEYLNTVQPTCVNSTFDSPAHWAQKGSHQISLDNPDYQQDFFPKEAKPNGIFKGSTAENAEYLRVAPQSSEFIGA

For `C=CC(=O)Nc1cc(Nc2ncnc(Nc3cc(Cl)c(Cl)cc3C(C)(C)O)n2)c(OC)cc1N(C)CCN(C)C` [Compound 15, N-(5-(4-(4,5-dichloro-2-(2-hydroxypropan-2-yl)phenylamino)-1,3,5-triazin-2-ylamino)-2-((2-(dimethylamino)ethyl)(methyl)amino)-4-methoxyphenyl)a crylamide], the IC50 in assay [1] was determined as 15.1 nM; in assay [2], 7.5 nM; in [3], 0.4 nM; in assay [4], 3.8 nM; in assay [5], 8.2 nM. The GI50 in [6] (setting [15]) stood at 32.9 nM; in [7] (setting [16]) it was 21.1 nM; in assay [8] (setting [17]), 7.4 nM; in [9], 32.7 nM; in assay [10] (setting [18]) it was 7.9 nM; in [11], 4.95 nM. The GI50 is 2.44 nM in [12], 6.68 nM in assay [13] and 1340 nM in [14].
On to `C=CC(=O)Nc1cc(Nc2ncnc(Nc3cc(Cl)c(F)cc3C(C)(C)O)n2)c(OC)cc1N1CCOC[C@@H]1CN(C)C` [Compound 40, (S)-N-(5-(4-(5-chloro-4-fluoro-2-(2-hydroxypropan-2-yl)phenylamino)-1,3,5-triazin-2-ylamino)-2-(3-((dimethylamino)methyl)morpholino)-4-methoxyphenyl)acrylamide], for which the IC50 turned out to be 10.9 nM in assay [1]; 13 nM in [2]; 0.9 nM in assay [3]; 5 nM in assay [4]; 19.3 nM in assay [5]. Also, the GI50 in [6] (setting [15]) turned out to be 22 nM; in [7] (setting [16]) it was 25.7 nM; in [8] (setting [17]), 2.1 nM; in assay [9], 43.4 nM; in assay [10] (setting [18]), 13.6 nM; in [11], 15.1 nM. For the same compound, the 50% growth inhibitory concentration (GI50) is 15.1 nM in [12], 11.9 nM in assay [13] and > 3000 nM in assay [14].
Take `C=CC(=O)Nc1cc(Nc2ncnc(Nc3cc(Cl)c(F)cc3C(C)(C)O)n2)c(OC)cc1N(C)CCN1CCC[C@@H]1C` [Compound 42, (S)-N-(5-(4-(5-chloro-4-fluoro-2-(2-hydroxypropan-2-yl)phenylamino)-1,3,5-triazin-2-ylamino)-4-methoxy-2-(methyl(2-(2-methylpyrrolidin-1-yl)ethyl)amino)phenyl) acrylamide]: the IC50 in assay [1] came out at 35.8 nM; in [2], 63.3 nM; in [3], 1.8 nM; in assay [4], 33.9 nM; in assay [5] it was 133 nM. Besides, the 50% growth inhibitory concentration (GI50) was 137 nM in assay [6] (setting [15]); 144 nM in assay [7] (setting [16]); 8.5 nM in assay [8] (setting [17]); 195 nM in [9]; 53.2 nM in [10] (setting [18]).
On to `C=CC(=O)Nc1cc(Nc2nccc(Nc3cc(Cl)c(F)cc3C(C)(C)O)n2)c(OC)cc1N1C[C@H](N(C)C)C2(CC2)C1` [Compound 83, (R)-N-(5-(4-(5-chloro-4-fluoro-2-(2-hydroxypropan-2-yl)phenylamino)pyrimidin-2-ylamino)-2-(7-(dimethylamino)-5-azaspiro[2.4]heptan-5-yl)-4-methoxyphenyl) acrylamide formic acid salt], for which the IC50 in assay [1] was found to be 239 nM; in assay [2], 154 nM; in assay [3], 5 nM; in assay [4] it was 87.6 nM; in assay [5], 1010 nM. Also, the 50% growth inhibitory concentration (GI50) was 300 nM in [6] (read-out: EGFR Exon20 NPH insertion GI50 (nM)); 340 nM in assay [7] (read-out: EGFR Exon20 ASV insertion GI50 (nM)); 38.9 nM in assay [8] (read-out: EGFR L858R and T790M mutation GI50 (nM)); 678 nM in assay [9]; 252 nM in assay [10] (read-out: EGFR WT A431 GI50 (nM)).
Regarding `C=CC(=O)Nc1cc(Nc2ncnc(Nc3cc(F)c(F)cc3C(C)(C)O)n2)c(OC)cc1N1CC[C@H]2CN(C)C[C@H]21` [Compound 25, N-(5-(4-(4,5-difluoro-2-(2-hydroxypropan-2-yl)phenylamino)-1,3,5-triazin-2-ylamino)-4-methoxy-2-((3aS,6aS)-5-methylhexahydropyrrolo[3,4-b]pyrrol-1(2H)-yl)phenyl) acrylamide], the IC50 in assay [1] is 376 nM; in assay [2], 388 nM; in assay [3], 7.9 nM; in assay [4] it was 534 nM; in [5], 838 nM. Further, the GI50 is 618 nM in assay [6] (setting [15]); 552 nM in assay [7] (setting [16]); 165 nM in assay [8] (setting [17]); 989 nM in assay [9]; 329 nM in assay [10] (setting [18]).
Regarding `C=CC(=O)Nc1cc(Nc2ncnc(Nc3cc(Cl)c(F)cc3C(C)(O)CC)n2)c(OC)cc1N1CCC[C@H]1CN(C)C` (stereo partly drawn) [Compound 64, N-(5-(4-(5-chloro-4-fluoro-2-(2-hydroxybutan-2-yl)phenylamino)-1,3,5-triazin-2-ylamino)-2-((S)-2-((dimethylamino)methyl)pyrrolidin-1-yl)-4-methoxyphenyl)acrylamide], the IC50 in assay [1] was 267 nM; in assay [2], 240 nM; in [3], 7.1 nM; in assay [4] it was 143 nM; in assay [5], 555 nM. For the same compound, the GI50 in [6] (setting [15]) is 359 nM; in assay [7] (setting [16]), 395 nM; in [8] (setting [17]) it was 24.2 nM; in assay [9] it was 640 nM; in assay [10] (setting [18]), 220 nM.
For the compound `COc1cc(N(C)CCN(C)C)c(NC(=O)/C=C/CN(C)C)cc1Nc1ncnc(Nc2cc(F)c(F)cc2C(C)(C)O)n1` [Compound 5, (E)-N-(5-(4-(4,5-difluoro-2-(2-hydroxypropan-2-yl)phenylamino)-1,3,5-triazin-2-ylamino)-2-((2-(dimethylamino)ethyl)(methyl)amino)-4-methoxypheny 1)-4-(dimethylamino)but-2-enamide], the IC50 in [1] came to 271 nM; in assay [2], 170 nM; in [3] it was 6.3 nM; in assay [4] it was 36.2 nM; in assay [5], 90.3 nM. Also, the concentration for 50% growth inhibition (GI50) in [6] (setting [15]) came out at 461 nM; in assay [7] (setting [16]), 234 nM; in assay [8] (setting [17]) it was 114 nM; in [9], 68.9 nM; in assay [10] (setting [18]), 117 nM.
In the case of `C=CC(=O)Nc1cc(Nc2ncnc(Nc3cc(Cl)c(F)cc3C(C)(C)O)n2)c(OC)cc1N1CCC[C@H]1CN(C)C` [Compound 65, (S)-N-(5-(4-(5-chloro-4-fluoro-2-(2-hydroxypropan-2-yl)phenylamino)-1,3,5-triazin-2-ylamino)-2-(2-((dimethylamino)methyl)pyrrolidin-1-yl)-4-methoxyphenyl)acrylamide], the IC50 in [1] came to 315 nM; in assay [2] it was 358 nM; in [3], 7.9 nM; in [4], 188 nM; in assay [5], 479 nM. In addition, the GI50 turned out to be 382 nM in assay [6] (setting [15]); 484 nM in assay [7] (setting [16]); 29.6 nM in assay [8] (setting [17]); 776 nM in assay [9]; 234 nM in [10] (setting [18]).
